Toxic doses and inconclusive results are not listed. No stated cut-off is given here; in the data, active means T/C of 150% or more; inactive means T/C below 125%.
Test system: L1210 leukemia ip in BDF1 mice, survival T/C
Test: NCI In Vivo Anticancer Drug Screen. Data for tumor model L1210 Leukemia (intraperitoneal) in B6D2F1 (BDF1) mice
Details: endpoint: mean survival time, higher = longer survival
Summary of the method: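 Ratio derived from survival: compound-dosed mice over vehicle-dosed mice, all bearing a transplantable tumor.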

[1] = dose: 100.0 mg/kg/injection, schedule: Q04DX003 (ip), vehicle: saline
[2] = dose: 200.0 mg/kg/injection, schedule: Q04DX003 (ip), vehicle: saline
[3] = dose: 100.0 mg/kg/injection, schedule: Q01DX009 (ip), vehicle: Klucel (hydroxypropylcellulose) (HPC)
[4] = dose: 200.0 mg/kg/injection, schedule: Q01DX009 (ip), vehicle: Klucel (hydroxypropylcellulose) (HPC)
[5] = dose: 400.0 mg/kg/injection, schedule: Q01DX009 (ip), vehicle: Klucel (hydroxypropylcellulose) (HPC)
[6] = dose: 75.0 mg/kg/injection, schedule: Q01DX001 (ip), vehicle: saline
[7] = dose: 100.0 mg/kg/injection, schedule: Q04DX003 (ip), vehicle: Klucel (hydroxypropylcellulose) (HPC)
[8] = dose: 200.0 mg/kg/injection, schedule: Q04DX003 (ip), vehicle: Klucel (hydroxypropylcellulose) (HPC)
[9] = dose: 400.0 mg/kg/injection, schedule: Q04DX003 (ip), vehicle: Klucel (hydroxypropylcellulose) (HPC)
[10] = dose: 100.0 mg/kg/injection, schedule: Q04DX002 (ip), vehicle: saline with Tween-80
[11] = dose: 200.0 mg/kg/injection, schedule: Q04DX002 (ip), vehicle: saline with Tween-80
[12] = dose: 400.0 mg/kg/injection, schedule: Q04DX002 (ip), vehicle: saline with Tween-80
[13] = dose: 100.0 mg/kg/injection, schedule: Q01DX009 (ip), vehicle: saline with Tween-80
[14] = dose: 100.0 mg/kg/injection, schedule: Q04DX003 (ip), vehicle: saline with Tween-80
[15] = dose: 200.0 mg/kg/injection, schedule: Q01DX009 (ip), vehicle: saline with Tween-80
[16] = dose: 200.0 mg/kg/injection, schedule: Q04DX003 (ip), vehicle: saline with Tween-80
[17] = dose: 400.0 mg/kg/injection, schedule: Q01DX009 (ip), vehicle: saline with Tween-80
[18] = dose: 400.0 mg/kg/injection, schedule: Q04DX003 (ip), vehicle: saline with Tween-80
[19] = dose: 100.0 mg/kg/injection, schedule: Q01DX001 (ip), vehicle: saline
[20] = dose: 200.0 mg/kg/injection, schedule: Q01DX001 (ip), vehicle: saline
[21] = dose: 50.0 mg/kg/injection, schedule: Q01DX009 (ip), vehicle: Klucel (hydroxypropylcellulose) (HPC)

Measured: T/C

COC(=O)Cc1cc(=O)c2cc(C)ccc2[nH]1
inactive: dose: 50.0 mg/kg/injection, schedule: Q01DX009 (ip), vehicle: acetone 94 % of control | dose: 100.0 mg/kg/injection, schedule: Q01DX009 (ip), vehicle: acetone 101 % of control | [1] 94 % of control | dose: 200.0 mg/kg/injection, schedule: Q01DX009 (ip), vehicle: acetone 97 % of control | [2] 94 % of control | dose: 400.0 mg/kg/injection, schedule: Q04DX003 (ip), vehicle: saline 94 % of control

N[P+](c1ccccc1)(c1ccccc1)c1ccccc1
inactive: dose: 12.5 mg/kg/injection, schedule: Q04DX002 (ip), vehicle: Klucel (hydroxypropylcellulose) (HPC) 109 % of control | dose: 25.0 mg/kg/injection, schedule: Q04DX002 (ip), vehicle: Klucel (hydroxypropylcellulose) (HPC) 88 % of control

Cc1ccc(NC(=O)Oc2cccc(C)c2C)cc1NC(=O)Oc1cccc(C)c1C
inactive: [3] 96 % of control | [4] 94 % of control | [5] 93 % of control

O=C1Nc2cc(C(F)(F)F)ccc2/C1=C/c1ccc(Cl)cc1
inactive: [6] 92 % of control | dose: 75.0 mg/kg/injection, schedule: Q04DX003 (ip), vehicle: saline 96 % of control | dose: 150.0 mg/kg/injection, schedule: Q01DX001 (ip), vehicle: saline 97 % of control | dose: 150.0 mg/kg/injection, schedule: Q04DX003 (ip), vehicle: saline 100 % of control | dose: 300.0 mg/kg/injection, schedule: Q01DX001 (ip), vehicle: saline 97 % of control | dose: 300.0 mg/kg/injection, schedule: Q04DX003 (ip), vehicle: saline 94 % of control

Cc1ccc(S(=O)(=O)NC(CSSCC(NS(=O)(=O)c2ccc(C)cc2)C(=O)OC(C)(C)C)C(=O)OC(C)(C)C)cc1 (centres undefined)
inactive: [3] 101 % of control | [7] 98 % of control | [4] 106 % of control | [8] 101 % of control | [5] 95 % of control | [9] 98 % of control

O=C(O)c1cc(Br)ccc1Br
inactive: [10] 102 % of control | [11] 110 % of control | [12] 105 % of control

O=C(NCc1cnccn1)c1ccccc1Cl
inactive: [13] 86 % of control | [14] 96 % of control | [15] 104 % of control | [16] 96 % of control | [17] 102 % of control | [18] 104 % of control

CNc1ccccc1C(N)=S
inactive: dose: 50.0 mg/kg/injection, schedule: Q01DX009 (ip), vehicle: saline 111 % of control | dose: 50.0 mg/kg/injection, schedule: Q04DX003 (ip), vehicle: saline 106 % of control | dose: 100.0 mg/kg/injection, schedule: Q01DX009 (ip), vehicle: saline 97 % of control | [1] 105 % of control | dose: 200.0 mg/kg/injection, schedule: Q01DX009 (ip), vehicle: saline 101 % of control | [2] 105 % of control

CSc1nc(NN(C)C)c2[nH]c(C)nc2n1
inactive: [19] 92 % of control | [20] 97 % of control

CCOC(=O)c1cc(Cl)cc(Cl)c1N=NN(C)C
inactive: dose: 50.0 mg/kg/injection, schedule: Q01DX009 (ip), vehicle: saline with Tween-80 102 % of control | [15] 102 % of control

CC(=O)OC(OC(C)=O)c1cccc2ccccc12
inactive: dose: 222.0 mg/kg/injection, schedule: Q01DX Z (ip), vehicle: saline 91 % of control | dose: 333.0 mg/kg/injection, schedule: Q01DX Z (ip), vehicle: saline 98 % of control | dose: 500.0 mg/kg/injection, schedule: Q01DX Z (ip), vehicle: saline 109 % of control

[O-]c1nn(-c2ccccc2)c2cccc[n+]12
inactive: [6] 111 % of control

CCCCCCCCCCCCCCCCCCNC(=O)N1CCCCC1C (centres undefined)
inactive: [3] 89 % of control | [4] 96 % of control | [5] 100 % of control

CCCCCC(=O)N1CCCCC1
inactive: dose: 25.0 mg/kg/injection, schedule: Q01DX009 (ip), vehicle: Klucel (hydroxypropylcellulose) (HPC) 93 % of control | [21] 96 % of control | [3] 94 % of control

O=C(Nc1ccc(Cl)c(Cl)c1)OC1C=CS(=O)(=O)C1 (centres undefined)
inactive: [7] 104 % of control | [8] 104 % of control | [9] 96 % of control

COC(=O)C1=C(C(=O)OC)C(C(=O)OC)N2C=CC=CC2=C1C(=O)OC (centres undefined)
inactive: dose: 50.0 mg/kg/injection, schedule: Q01DX001 (ip), vehicle: carboxymethylcellulose (CMC) 94 % of control | dose: 100.0 mg/kg/injection, schedule: Q01DX001 (ip), vehicle: carboxymethylcellulose (CMC) 89 % of control | dose: 200.0 mg/kg/injection, schedule: Q01DX001 (ip), vehicle: carboxymethylcellulose (CMC) 94 % of control

CC1CC=CCC1COC(=O)C(=O)OCC1CC=CCC1C (centres undefined)
inactive: [13] 98 % of control | [14] 101 % of control | [15] 95 % of control | [16] 97 % of control | [17] 95 % of control | [18] 95 % of control

CN(C)CCc1ccccc1
inactive: dose: 25.6 mg/kg/injection, schedule: Q04DX002 (ip), vehicle: saline with Tween-80 100 % of control | dose: 64.0 mg/kg/injection, schedule: Q04DX002 (ip), vehicle: saline with Tween-80 103 % of control | [13] 100 % of control | [14] 102 % of control | dose: 160.0 mg/kg/injection, schedule: Q04DX002 (ip), vehicle: saline with Tween-80 103 % of control | [15] 95 % of control | [16] 102 % of control | [12] 100 % of control | [18] 100 % of control

Oc1ccccc1C=Nc1ccc(Cl)cc1
inactive: [10] 105 % of control | [11] 105 % of control | [12] 97 % of control

COC(=O)c1cc([N+](=O)[O-])cc([N+](=O)[O-])c1O
inactive: [21] 87 % of control | [10] 100 % of control | [11] 105 % of control

CSc1nc(N(C)C)c2[nH]c(C)nc2n1
inactive: [19] 87 % of control | [20] 101 % of control

COc1ccc2c(=O)c(C)c(C)oc2c1CN1CCOCC1
inactive: dose: 0.78 mg/kg/injection, schedule: Q01DX009 (ip), vehicle: saline 94 % of control | dose: 1.56 mg/kg/injection, schedule: Q01DX009 (ip), vehicle: saline 98 % of control | dose: 3.12 mg/kg/injection, schedule: Q01DX009 (ip), vehicle: saline 107 % of control | dose: 6.25 mg/kg/injection, schedule: Q01DX009 (ip), vehicle: saline 100 % of control

c1ccc([P+](Cc2ccco2)(c2ccccc2)c2ccccc2)cc1
inactive: dose: 5.0 mg/kg/injection, schedule: Q01DX001 (ip), vehicle: saline 103 % of control | dose: 10.0 mg/kg/injection, schedule: Q01DX001 (ip), vehicle: saline 97 % of control | dose: 20.0 mg/kg/injection, schedule: Q01DX001 (ip), vehicle: saline 90 % of control | dose: 40.0 mg/kg/injection, schedule: Q01DX001 (ip), vehicle: saline 89 % of control

From PubChem BioAssay AID248 (DTP/NCI, 2004)
